The values that follow come from BindingDB's records for doi:10.1021/acs.jmedchem.7b01854 (Gsk Pharmaceuticals R & D, 2018).

In assay [1] the target is C-C chemokine receptor type 10 (Homo sapiens) (UniProt P46092). The assay can be described thus: Agonist activity at CCR10 (unknown origin).
The target is the same in assay [2]. The experiment in a line: Agonist activity at CCR10 (unknown origin). This is another data set of the same source.

pEC50, pIC50: −log10 of the molar value.

C-C chemokine receptor type 10 (Homo sapiens), sequence (P46092 whole entry, looked up): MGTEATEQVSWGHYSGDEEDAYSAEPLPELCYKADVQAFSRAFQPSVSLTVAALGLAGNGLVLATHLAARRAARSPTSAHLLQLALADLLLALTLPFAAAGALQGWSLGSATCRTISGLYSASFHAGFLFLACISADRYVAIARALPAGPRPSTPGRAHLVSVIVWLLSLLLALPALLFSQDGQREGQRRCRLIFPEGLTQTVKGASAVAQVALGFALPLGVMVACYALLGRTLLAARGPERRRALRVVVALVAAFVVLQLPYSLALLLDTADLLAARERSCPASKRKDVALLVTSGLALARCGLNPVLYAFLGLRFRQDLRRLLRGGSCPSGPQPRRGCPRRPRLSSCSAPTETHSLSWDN

The term pIC50 denotes the IC50 on a negative log10 scale, so that one unit is a factor of ten. By pEC50 is commonly meant the negative decadic logarithm of the EC50, by convention in mol/L. A low value points to a high EC50. `CC1=CCC[C@H]1NC(=O)Nc1ccc(Cl)c(S(=O)(=O)[C@@]2(C)CCOC2)c1O` had a negative-log IC50 (pIC50) in assay [1] of less than 5.00. For the same compound, in assay [2], the negative logarithm of the EC50 (pEC50) was less than 5.00.
